Literature values, collected in patent US20230065168A1, “[…] COMBINATION WITH A REPLICATION-DEFICIENT TYPE 5 […] EXPRESSION OF INTERFERON GAMMA FOR THE TREATMENT OF SKIN CANCER” (ASCEND BIOPHARMACEUTICALS LTD, priority 2021, published 2023).

Compound: CS(=O)(=O)c1ccc(C(=O)Nc2ccc(Cl)c(-c3ccccn3)c2)c(Cl)c1 [vismodegib, 2-Chloro-N-(4-chloro-3-(pyridin-2-yl)phenyl)-4-(methylsulfonyl)benzamide]
- time at which adverse events generally begin to manifest (oral daily treatment): 6-8 weeks
- adverse events commonly associated with administration (patients with advanced BCC): muscle spasms, alopecia, dysgeusia, weight loss, fatigue, nausea, diarrhea, decreased appetite, constipation, arthralgia, vomiting, and ageusia
